Assay results reported in patent US7622479B2, “Bicyclic derivative, its production and use” (Takeda Pharmaceutical Company Limited, priority 2001, dated 2009).
Marks after values point to notes of the source that are not given here.

Tests used:
[1] = system: HER2-expressing SK-BR-3 human breast cancer cells; test: Cell proliferation suppression test, SK-BR-3 (SRB staining); assay type: cell-based; settings: SK-BR-3 cells, incubated for 3 or 5 days, SRB protein staining, absorbance 550 nm, read-out: Cell proliferation inhibition (IC50; μM) SK-BR-3
Procedure: (§1) 100 μl of a suspension of HER2-expressing SK-BR-3 human breast cancer cells or 100 μl of BT-474 (2,000 cells) or 100 μl (4,000 cells) of a suspension of normal human cell fibroblast MRC-5 was sown in a 96-well microplate and cultured at 37° C. in a 5% carbonic acid gas incubator. On the following day, 100 μl of a solution of the test compound which had previously been diluted 2-fold, was added and the mixture was incubated for 3 or 5 days. The cells were fixed and washed with 5% glutaraldehyde solution and further fixed with 10% trichloroacetic acid solution, after which a 0.4% (W/V) SRB 0.4% (W/V) solution (dissolved in 1% acetic acid) was added to stain the cell protein. After the pigment solution was removed and the plate was washed with 1% acetic acid solution, 100 μl of extract (10 mM tris buffer solution) was added to extract the pigment; absorbance was measured at an absorption wavelength of 550 nm to quantify the amount of cells as protein content.
(§2) Taking the absorbance for the control group, which received no test compound solution, as 100% the ratio of the absorbance for each treatment group was determined, and the compound concentration required to achieve 50% suppression of the residual cell content relative to the control (IC50 value) was calculated.

[2] = system: normal human cell fibroblast MRC-5; test: Cell proliferation suppression test, normal cells MRC-5 (SRB staining); assay type: cell-based; settings: MRC5, MRC-5 normal fibroblasts, incubated for 3 or 5 days, SRB protein staining, absorbance 550 nm, read-out: Cell proliferation inhibition (IC50; μM) MRC-5
Procedure: as §1, §2

[3] = system: BT-474 human cancer cells; test: Antitumor test in nude mouse model implanted with human cancer cells; assay type: in vivo; settings: twice each day, for 14 days, nude BALB/c female mouse, BT-474 subcutaneous, tumor volume change vs Gelucire control
Procedure: 1×10^7 BT-474 human cancer cells were suspended in Matrigel solution, and the suspension was subcutaneously transplanted to a nude BALB/c female mouse (5 weeks old). In order to enhance the take ratio of the tumor, an estrogen preparation was intramuscularly administered to a hind leg at plantation and 7 days after transplantation.
A Gelucire solution (0.3 or 1 mg/ml) of the compound of the present invention was orally administered at a dosage of 10 ml/kg, twice each day, for 14 days. During the first day and the last day that the administration was carried out, the tumor diameter was measured, and the tumor volume was calculated using the formula: tumor volume=major axis x minor axis x minor axis x(1/2). The T/C (%) was calculated as the ratio of the value obtained by subtracting the tumor volume on the last day of administration from the tumor volume on the first day of administration for the control group (to which only Gelucire was administered) and the value obtained by subtracting the tumor volume on the last day of administration from the tumor volume on the first day of administration for the treatment group.

[4] = system: BT-474 human breast cancer cells; test: Cell proliferation suppression test, BT-474 (SRB staining); assay type: cell-based; settings: BT-474 cells, incubated for 3 or 5 days, SRB protein staining, absorbance 550 nm, read-out: Cell proliferation inhibition (IC50; μM) BT-474
Procedure: as §1, §2

Structure (SMILES)	IC50 [1]	IC50 [4]	IC50 [2]	T/C(%) 3 mg/kg ([3]; 3 mg/kg orally)	T/C(%) 10 mg/kg ([3]; 10 mg/kg orally)
COc1cccc(-c2nc3cc(-c4ccccc4)cnc3[nH]2)c1 [Example 1, 2-(3-methoxyphenyl)-6-phenyl-1H-imidazo[4,5-b]pyridine]	0.12 µM	0.28 µM	> 25 µM	58* %	31** %
COc1ccc(Cc2nc3cc(-c4ccco4)cnc3[nH]2)cc1OC [Example 97, 2-(3,4-dimethoxybenzyl)-6-(2-furyl)-1H-imidazo[4,5-b]pyridine]	0.94 µM	0.49 µM	> 25 µM		
Clc1ccc(Cc2nc3cc(-c4ccco4)cnc3[nH]2)cc1 [Example 113, 2-(4-chlorobenzyl)-6-(2-furyl)-1H-imidazo[4,5-b]pyridine]	0.22 µM	0.25 µM	≥ 25 µM		
COc1cccc(-c2nc3ncc(-c4ccccc4)cc3n2Cc2ccccc2O)c1 [Example 157, 2-[[2-(3-methoxyphenyl)-6-phenyl-1H-imidazo[4,5-b]pyridin-1-yl]methyl]phenol]	0.23 µM	0.19 µM	> 25 µM		

The next lines start with results.

IC50 [1]	IC50 [4]	Structure (SMILES)	IC50 [2]	T/C(%) 3 mg/kg ([3]; 3 mg/kg orally)	T/C(%) 10 mg/kg ([3]; 10 mg/kg orally)
0.55 µM	1.1 µM	COc1cccc(-c2nc3ncc(-c4ccccc4)cc3n2CC2CC2)c1 [Example 202, 1-(cyclopropylmethyl)-2-(3-methoxyphenyl)-6-phenyl-1H-imidazo[4,5-b]pyridine]	21 µM		
0.14 µM	0.83 µM	Fc1ccc(/C=C/c2nc3cc(-c4ccco4)ccc3o2)c(F)c1 [Example 219, 2-[(E)-2-(2,4-difluorophenyl)ethenyl]-5-(2-furyl)benzoxazole]	> 25 µM		
